# Patent publication US20200190172A1, “METHOD FOR DIAGNOSING/DETERMINING THE EFFECTIVENESS OF TREATMENT FOR DEPRESSION” (Centre National De La Recherche Scientifique, priority 2016, published 2020)
# Where no end group is shown, it is not given here.
# T1: TREK-1 potassium channel (Mus musculus, UniProt P97438)
# T1 construct: host or cells: living mice (endogenous channel)
# T1 sequence (P97438 1-426): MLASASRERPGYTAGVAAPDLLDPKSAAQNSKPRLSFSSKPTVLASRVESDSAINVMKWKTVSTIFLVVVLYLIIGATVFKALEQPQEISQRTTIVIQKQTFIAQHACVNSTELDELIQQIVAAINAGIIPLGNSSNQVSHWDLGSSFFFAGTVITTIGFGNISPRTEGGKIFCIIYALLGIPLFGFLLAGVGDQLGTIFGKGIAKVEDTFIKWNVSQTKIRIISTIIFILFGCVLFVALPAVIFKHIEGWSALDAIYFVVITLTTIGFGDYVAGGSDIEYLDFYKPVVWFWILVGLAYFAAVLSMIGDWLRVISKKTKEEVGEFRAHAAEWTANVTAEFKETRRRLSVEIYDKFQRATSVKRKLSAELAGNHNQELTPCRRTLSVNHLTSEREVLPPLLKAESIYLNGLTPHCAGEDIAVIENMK
# Legend:
# [1] = tested on: anti-spadin antibodies (AB1 polyclonal antibody); assay: AlphaLISA competition assay: biotinylated spadin / anti-spadin antibody displaced by peptides; type: binding, rabbit; conditions: for recognition by the anti-spadin antibodies (AB1): AlphaLISA, FIG. 1A-1C; for IC50: competition with 10 nM biotinylated spadin, antibody 1:1000
# Procedure: The antibody used was the AB1 antibody, as mentioned above.
# When two microbeads (acceptors and donors) were in close proximity, the signal was produced by a molecular interaction between the binding partners on the beads. The propeptide present in the serum sample was able to interfere with this interaction leading to competition. […] After the addition of donor and acceptor beads and an additional incubation for 2 hours at room temperature, the plates were read using an Enspire reader (Perkin). […] The quantity of propeptide was determined from its signal percent inhibition and calculated using the standard curve.
# mice = assay: Porsolt Forced Swim Test (FST); type: in vivo, mice (C57BL/6J); conditions: for immobility time compared to saline solution: FST, final 4 min of 6 min, p<0.0001 spadin, 12-27 PE, 22-28 PE, p=0.0026 14-25 PE; for Antidepressant activity: Porsolt Forced Swim Test, intravenous injection, mice
# Procedure: The experiments were performed on males of 20-25 g C57BL/6J of 8-10 weeks old (January France Elevage) in accordance with the policies on the welfare and use of laboratory animals set out in European Community Directive 2010/63/EU. The local ethics committee (CIEPAL) has approved the protocols used in this study (Protocol Number 00.893.02).
# After intravenous injection of saline solution or various tested peptides, the mice (n=10-12 per group) were placed individually in a cylinder (height: 30 cm, diameter: 15 cm) filled with water to a depth of 12 cm (temperature: 22±1° C.) for 6 min. The total immobility time was recorded during the final 4 min (Porsolt et al., 1977).
# AB2 polyclonal antibody = assay: Recognition of PE fragments by AB2 polyclonal antibody (FIG. 1A); type: binding, rabbit
# Excerpt: FIG. 1: FIG. 1A is a diagram representing the structure/recognition relationships of the antibodies AB1 and AB2 according to the different fragments. […] FIGS. 1B and 1C represent the relative affinities for spadin, PE and analogs assayed by the detection method.
# In particular, antibodies AB1 and AB2 were obtained by injecting into two rabbits, namely Oryctolagus cuniculus, spadin coupled to KLH (Keyhole limpet hemocyanin protein) (AB1) or mini-spadin (22-28 PE) coupled to KLH (AB2) on day 0, DO (1 mg), day 7, D7 (1 mg), day 14, D14 (1 mg) and day 29, D29 (1 mg). Blood samples, namely 20 ml, were taken on day 27 (D27) and day 42 (D42). The polyclonal serum was obtained by centrifuging at 1200×g for 10 min. The polyclonal serum corresponding to the supernatant was recovered. The immune response was checked by ELISA for each antibody. The antibodies contained in the serum were kept at −20° C.
# TREK-1 potassium channel = target: T1, TREK-1 potassium channel; conditions: injected intravenously or intraperitoneally into mice; by inhibiting TREK-1 channel activity; cited from earlier work
# [2] = Stability of PE in human serum (AlphaLISA); type: in vitro ADME; conditions: serum with or without EDTA, room temperature (22° C.), 24 h
# Procedure: FIG. 3: FIG. 3 is a histogram representing the stability of PE in the human serum. Serums with or without EDTA (n=7 for each matrix) from healthy blood donors were tested for their stability at room temperature for 24 h. The PE concentration for each incubation period was determined using an AlphaLISA assay method. The average concentrations at the different points in time are expressed as an average ±SEM.
# The antidepressant activity of the analogs was tested using the FST. […] (Ordinarily ANOVA, F5.54=20.21, **** p<0.0001 for spadin, 12-27 PE and 22-28 fragments compared to saline mice treated with a saline solution, ** p=0.0026 for 14-25 PE fragment compared to saline mice treated with a saline solution; error bars, average ±SEM). […] A study of the stability of PE in human serum was carried out. FIG. 3 is a histogram representing the stability of PE in human serum. Serums with or without EDTA (n=7 for each matrix) from healthy blood donors were tested for their stability at room temperature (22° C.) for 24 h. The PE concentration for each incubation period was determined using an AlphaLISA assay method. In FIG. 3, the average concentrations at the different time points are expressed as an average ±SEM. […] The unpaired t test for the PE concentration between serum and EDTA-serum indicated no significant difference for each time.
# [3] = target: polyclonal antibodies (AB1) directed against the peptide of sequence … (Spadin); assay: AlphaLISA competition, unlabelled peptide against 10 nM biotinylated spadin on AB1 (1:1000)
# [4] = target: polyclonal antibodies (AB1) directed against the peptide of sequence … (Spadin); assay: AlphaLISA competition against biotinylated spadin (differs from Table 2)
Molecule,recognition by the anti-spadin antibodies (AB1) [1],IC50 [1] [nM],Antidepressant activity (mice),IC50 [3] [nM],other results
"GVSWGLR [22-28 PE, peptide fragment 22 to 28 of the propeptide]",not recognized,> 1000,Yes,,recognition by the anti-spadin antibodies (AB1) ([1]; listed as SEQ ID NO 6): sole exception; immobility time compared to saline solution (mice): shorter immobility time; binding by AB2 polyclonal antibody (AB2 polyclonal antibody): bound
"C[C@H](N)C(=O)NCC(=O)N[C@H]1CSSC[C@@H](C(=O)O)NC(=O)[C@H](CO)NC(=O)[C@H]([C@@H](C)O)NC(=O)[C@H](Cc2ccccc2)NC(=O)[C@H]([C@@H](C)O)NC(=O)[C@H](CCCCN)NC(=O)[C@H](Cc2c[nH]c3ccccc23)NC(=O)[C@H](Cc2ccccc2)NC(=O)[C@H](Cc2ccccc2)NC(=O)[C@H](CC(N)=O)NC(=O)[C@H](CCCCN)NC1=O [somatostatin-14, reference compound]",not recognized,,,,recognition by the anti-spadin antibodies (AB1) ([1]; listed as somatostatin): incapable of interfering
APLPRWSGPIGVSWGLR [spadin],recognized,2.5,showed an antidepressant activity,,recognition by the anti-spadin antibodies (AB1) ([1]; listed as SEQ ID NO 2): binds; immobility time compared to saline solution (mice): shorter immobility time; Antidepressant activity (mice; listed as spadin 12-28 PE): Yes; binding by AB2 polyclonal antibody (AB2 polyclonal antibody): bound; antidepressant (AD) activities (TREK-1 potassium channel): powerful antidepressant (AD) activities
"APLPRWSGPIGVSWGL [12-27 PE, peptide fragment 12 to 27 of the propeptide]",recognized,1.73,showed an antidepressant activity and Yes,,recognition by the anti-spadin antibodies (AB1) ([1]; listed as SEQ ID NO 3): binds; immobility time compared to saline solution (mice): shorter immobility time
QDRLDAPPPPAAPLPRWSGPIGVSWGLRAAAAGGAFPRGGRWRR [PE],,,,,stability of PE in human serum [2]: stability of the SLI measurement for 24 hours at room temperature
"LPRWSGPIGVSW [14-25 PE, peptide fragment 14 to 25 of the propeptide]",recognized,3.44,showed an antidepressant activity and Yes,,recognition by the anti-spadin antibodies (AB1) ([1]; listed as SEQ ID NO 4): binds; immobility time compared to saline solution (mice): shorter immobility time
WSGPI [SEQ ID NO 5],binds,,,,
"QDRLDAPPPPAAPLPR [1-16 PE, peptide fragment 1 to 16 of the propeptide]",not recognized,> 1000,No,,
APLPRWSGPIGVSWGLR [spadin 12-28 PE],,,,2.5,
GVSWGLR [22-28 PE],,,,> 1000,
LPRWSGPIGVSW [14-25 PE],,,,3.44,IC50 [4]: 1.73 nM
QDRLDAPPPPAAPLPRWSGPIGVSWGLRAAAAGGAFPRGGRWRR [Propeptide (PE) 44AA],,,,2.18,
QDRLDAPPPPAAPLPR [1-16 PE (pro-spadin)],,,,> 1000,
APLPRWSGPIGVSWGL [12-27 PE],,,,1.73,IC50 [4]: 3.44 nM
